For 1 compound, Fold change results are on record in patent US20250025439A1, “DERIVATIVES OF NIFUROXAZIDE FOR USE IN THE TREATMENT OF MITOCHONDRIAL DISORDERS AND NEURODEGENERATIVE DISEASES” (priority 2021, published 2025).

In the experiment the target is T1, Pleckstrin homology-like domain family B member 2 (PHLDB2) (Homo sapiens, UniProt Q86SQ0).
T1 construct: Protein extracts from human fibroblasts were incubated with magnetic beads; endogenous in cells; host or cells: human fibroblast lysate
T1 sequence (Q86SQ0 1-1253): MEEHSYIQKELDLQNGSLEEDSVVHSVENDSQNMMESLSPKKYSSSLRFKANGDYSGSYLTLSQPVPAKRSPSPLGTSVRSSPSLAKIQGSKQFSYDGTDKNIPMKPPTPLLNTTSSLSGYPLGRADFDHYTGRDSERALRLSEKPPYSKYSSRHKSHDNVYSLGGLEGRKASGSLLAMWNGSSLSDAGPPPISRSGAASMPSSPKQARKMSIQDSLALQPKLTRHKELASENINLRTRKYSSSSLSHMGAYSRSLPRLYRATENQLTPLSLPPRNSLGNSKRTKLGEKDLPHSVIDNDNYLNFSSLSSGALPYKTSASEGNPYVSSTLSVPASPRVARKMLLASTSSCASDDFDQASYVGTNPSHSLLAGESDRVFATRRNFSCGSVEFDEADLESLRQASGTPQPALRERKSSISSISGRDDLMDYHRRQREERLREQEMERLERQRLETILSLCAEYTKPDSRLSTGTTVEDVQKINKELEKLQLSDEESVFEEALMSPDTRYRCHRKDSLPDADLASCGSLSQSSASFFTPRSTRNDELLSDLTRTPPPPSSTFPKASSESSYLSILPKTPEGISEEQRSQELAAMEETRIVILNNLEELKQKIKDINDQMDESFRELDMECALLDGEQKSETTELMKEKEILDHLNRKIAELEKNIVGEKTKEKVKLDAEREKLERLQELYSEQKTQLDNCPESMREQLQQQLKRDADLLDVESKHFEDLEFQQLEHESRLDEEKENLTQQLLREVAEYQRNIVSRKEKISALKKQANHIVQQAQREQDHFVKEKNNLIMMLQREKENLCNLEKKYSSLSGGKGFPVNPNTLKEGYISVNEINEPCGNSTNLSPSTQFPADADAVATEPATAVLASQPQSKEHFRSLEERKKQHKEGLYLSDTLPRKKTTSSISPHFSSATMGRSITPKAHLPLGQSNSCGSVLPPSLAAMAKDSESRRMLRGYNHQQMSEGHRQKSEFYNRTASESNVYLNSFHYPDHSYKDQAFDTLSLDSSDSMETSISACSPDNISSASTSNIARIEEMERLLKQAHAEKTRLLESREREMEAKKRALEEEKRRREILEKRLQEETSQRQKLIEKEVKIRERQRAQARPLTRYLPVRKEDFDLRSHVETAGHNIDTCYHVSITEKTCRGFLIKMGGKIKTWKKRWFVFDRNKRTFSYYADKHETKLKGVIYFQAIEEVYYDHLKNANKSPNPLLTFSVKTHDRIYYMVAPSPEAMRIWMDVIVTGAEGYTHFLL
The experiment in a line: Affinity chromatography with NFX-beads and mass spectrometry. It counts as binding. To be noted: spectral counts, NFX coupled beads vs beads alone, human fibroblast extracts. As for the experimental part:
Fibroblasts were trypsinized and washed with PBS 1× then incubated in lysis buffer on ice during 20 minutes (Lysis buffer: Tris-HCl pH 7.5 50 mM, EDTA 2 mM, Triton X-100 0.1% supplemented with anti-protease and anti-phosphatase (Complete-Mini™—Roche). After centrifugation 15 minutes, 13 000 rpm at 4° C., supernatant was conserved and the protein concentration was determined using the Pierce BCA assay kit (Thermo Fisher Scientific).
10 μL of magnetic beads and NFX-beads were washed three times in Bead buffer before to be resuspended 100 μL of Bead buffer (Bead buffer: Tris-HCl pH 7.5 50 mM, NaCl 150 mM, Triton X-100 0.1%, supplemented with anti-protease and anti-phosphatase (Complete-Mini™—Roche)) thanks to a magnetic rack (DynaMag-2 Ref 12321D Life Technologies). 800 μg of proteins were mixed with 100 μL of diluted beads and the final volume was set to 800 μL with Bead buffer. The proteins and the beads were incubated 30 minutes with rotation in a cold room. Using a magnetic rack, the beads were separated from the protein extract and washed three time with Bead buffer before to be resuspended in 75 μL of Laemmli2X. Laemmli with beads was put 5 minutes at 95° C. to eluate the proteins and the beads were discarded using a magnetic rack. 35 μL of the eluted proteins were subjected to SDS-PAGE and silver coloration (ProteoSilver™ Silver Stain Kit—Sigma Aldrich). Bands of interest were extracted from the gel and subjected to mass spectrometry.
Mass spectrometric identification and quantification of the pulled down proteins were performed as previously described (Shrivastava et al., EMBO, 2019, 38:e99871). The raw data were cleaned using the following pathway. First, only the proteins found to interact with the NFX coupled beads in the three replicates were kept for further analysis. […] The final proteins were then classified based on the fold chance and the p-value.
Identification of the NFX intracellular targets is a crucial step in understanding its mechanisms of action and to be able to improve its efficiency on a rational basis. To purify NFX-binding proteins, affinity chromatography purification was performed using magnetic beads. Protein extracts from human fibroblasts were incubated with magnetic beads alone or to which NFX has been covalently coupled (Scheme 1). Eluted fractions were subjected to SDS-PAGE electrophoresis and silver staining (FIG. 9A). The pattern was clearly different between eluted proteins from NFX-beads compared to those eluted form beads alone with 13 bands either appeared or were of a higher intensity with the NFX-beads (FIG. 9B). Excised bands were subjected to proteolytic digestion and mass spectrometry.

`O=C(N/N=C/c1ccc([N+](=O)[O-])o1)c1ccc(O)cc1` [NFX, (E)-4-hydroxy-N′-((5-nitrofuran-2-yl)methylene)benzohydrazide] gave a Fold change of 91.67.
